# Where “and” joins values, the source holds several entries; their conditions need not be identical. Equal values may be shown once. Marks after values point to notes of the source that are not given here.
# System: patients with MDD
# Assay: Changes in Sexual Function Questionnaire (CSFQ) scores, double-blind placebo-controlled clinical study
# Type: in vivo, Humans
# Design: key to CSFQ Desire/Interest score / CSFQ Arousal/Excitement score / CSFQ Orgasm/Completion score / CSFQ Total Score / CSFQ Pleasure score / CSFQ Desire/Frequency score: CSFQ items on 5-point scale; higher = more favorable sexual function
# Protocol: A double-blind, randomized, placebo-controlled, parallel-group study was performed to evaluate the efficacy, safety and tolerability of OPC-14523 in patients with MDD. The patients selected for participation in the trial had to meet DSM-IV-TR criteria for MDD (296.2x or 296.3x; diagnosis via MINI) and had had symptoms of depression for at least 2 months before the start of the double-blind treatment. Among other drugs prohibited during the study, patients were prohibited from taking drugs used to enhance sexual function, including, but not limited to, sildenafil, tadalafil and vardenafil, or taking psychopharmacologic drugs.
# There were 131 patients assigned to receive OPC-14523 at the start of the study. One hundred twenty seven (127) of these patients took at least one dose of OPC-14523. There were 137 patients assigned to receive placebo at the start of the study. One hundred thirty three (133) of these patients took at least one dose of placebo.
# Each patient was expected to participate for up to 10 weeks. The 10 weeks included: i) a 4- to 10-day screening period, during which potential participants were administered placebo in a single-blind manner; ii) an 8-week double-blind treatment period; and iii) a 4- to 10- day post-treatment visit period. Baseline evaluations, including assessment of sexual function, were conducted on Day −1. The next day, Day 1, the double-blind medication was begun. All treatment was on an outpatient basis.
# The dosages studied were 5 mg BID OPC-14523 (10 mg total daily dose of immediate release tablet of Example 1) and placebo. The drugs were taken after meals in the morning and in the evening, about 12 hours apart.
# Data on sexual function were collected using the Changes in Sexual Function Questionnaire (CSFQ). The CSFQ is a 14-item self-report measure of sexual functioning vis-â-vis experiences of pleasure, desire, arousal, and orgasm, with a 5-point response option for each item. The 14-item validated CSFQ was developed from a questionnaire comprising 35 and 36 items for female and male respondents, respectively (Clayton et al., Psychopharmacol Bull. 33(4):731-45 (1997) and Clayton et al., Psychopharmacol Bull. 33(4):747-53 (1997), each incorporated herein by reference in its entirety). The CSFQ has also been independently validated (Bobes et al., J Sex Marital Ther. 26(2): 119-31(2000)). The 14-item CSFQ includes items 8, 11, 14, 19-24 from the interview version of the CSFQ (“CSFQ-I”); Clayton et al., Psychopharmacol Bull. 33(4):731-45 (1997)). The CSFQ differs for men and women, reflecting some variation in wording of items. Males were given the male clinical version, CSFQ-M-C, and women were given the female clinical version, CSFQ-F-C. CSFQ-F-C includes items 25, 27, 28, 30 and 31 from the questions for women on the CSFG-I. CSFQ-M-C includes items 28-32 from the questions for men on the CSFQ-I, as well as item 25 from the questions for women.
# The 14-item CSFQ has subscales for sexual pleasure (1 item), desire/frequency (2 items), desire/interest (3 items), arousal (3 items), and orgasm (3 items). In addition, a 14-item total score may be calculated. Higher scores are indicative of more favorable sexual functioning. Threshold scores for total and sub-scales have been defined. A score below the threshold score indicates dysfunction.
# Results were scored and analyzed according to the CSFQ instruction manual. The p-values resulted from an analysis of covariance (ANCOVA) linear model where the dependent variable is the change from baseline and independent variables are site effect, treatment effect, and baseline. The p-value is from the Type III sums of squares t-test for the hypothesis that the treatment groups are the same versus the alternative they are different. Last observation carry-forward (LOCF) analysis was used as indicated. In the LOCF analysis, for patients who dropped out before completion of the study, the last observations were carried forward to the final time point. […]
# [1] = all patients (men and women), Baseline, before treatment
# [2] = all patients (men and women), Day 28, 5 mg BID, LOCF
# [3] = all patients (men and women), Day 56, 5 mg BID, LOCF
# [4] = men only, Baseline, before treatment
# [5] = men only, Day 28, 5 mg BID, LOCF
# [6] = men only, Day 56, 5 mg BID, LOCF
# [7] = women only, Baseline, before treatment
# [8] = women only, Day 28, 5 mg BID, LOCF
# [9] = women only, Day 56, 5 mg BID, LOCF
compound,measurement,setting,value
"COc1cccc2c1CCC(=O)N2CCCN1CCN(c2cccc(Cl)c2)CC1 [OPC-14523, 1-[3-[4-(3-chlorophenyl)-1-piperazinyl]propyl]-5-methoxy-3,4-dihydro-2(1H)-quinolone]",CSFQ Arousal/Excitement score,[1],8.97
same,CSFQ Desire/Frequency score,[1],5.13
same,CSFQ Desire/Interest score,[1],7.30
same,CSFQ Orgasm/Completion score,[1],9.50
same,CSFQ Pleasure score,[1],2.06
same,CSFQ Total Score,[1],41.9
same,CSFQ Arousal/Excitement score,[2],9.24
same,CSFQ Desire/Frequency score,[2],5.39
same,CSFQ Desire/Interest score,[2],7.66
same,CSFQ Orgasm/Completion score,[2],9.56
same,CSFQ Pleasure score,[2],2.41**
same,CSFQ Total Score,[2],43.4
same,CSFQ Arousal/Excitement score,[3],9.55
same,CSFQ Desire/Frequency score,[3],5.57*
same,CSFQ Desire/Interest score,[3],7.94*
same,CSFQ Orgasm/Completion score,[3],9.77
same,CSFQ Pleasure score,[3],2.51 (p = 0.11)
same,CSFQ Total Score,[3],44.4 (p = 0.05)
same,"sexual function overall, CSFQ Total Scores (in words)","all patients, compared with placebo, Day 28 and/or Day 56",significantly improved sexual function overall
same,sexual desire (in words),both men and women,increased sexual desire
same,sexual pleasure and sexual arousal and excitement (in words),men,strong trend of improved sexual pleasure and sexual arousal and excitement
same,CSFQ Arousal/Excitement score,[4],10.5 and 10.48
same,CSFQ Desire/Frequency score,[4],5.8 and 5.77
same,CSFQ Desire/Interest score,[4],8.2 and 8.21
same,CSFQ Orgasm/Completion score,[4],11.3 and 11.33
same,CSFQ Pleasure score,[4],2.2 and 2.15
same,CSFQ Total Score,[4],47.6
same,CSFQ Arousal/Excitement score,[5],11.13 (p = 0.07)
same,CSFQ Desire/Frequency score,[5],6.26*
same,CSFQ Desire/Interest score,[5],8.94*
same,CSFQ Orgasm/Completion score,[5],11.32
same,CSFQ Pleasure score,[5],2.68***
same,CSFQ Total Score,[5],50.1*
same,CSFQ Arousal/Excitement score,[6],11.17 (p = 0.13)
same,CSFQ Desire/Frequency score,[6],6.38*
same,CSFQ Desire/Interest score,[6],8.91 (p = 0.07)
same,CSFQ Orgasm/Completion score,[6],11.34
same,CSFQ Pleasure score,[6],2.60 (p = 0.10)
same,CSFQ Total Score,[6],50.2 (p = 0.12)
same,sexual function overall (in words),"men, compared with placebo, Day 28 and/or Day 56",significantly improved sexual function overall
same,sexual interest (in words),"men, p=0.07",improved sexual interest
same,total CSFQ and every subscale vs placebo (in words),summary,advantage over placebo
same,CSFQ Arousal/Excitement score,[7],7.9 and 7.91
same,CSFQ Desire/Frequency score,[7],4.7 and 4.68
same,CSFQ Desire/Interest score,[7],6.7 and 6.66
same,CSFQ Orgasm/Completion score,[7],8.2 and 8.21
same,CSFQ Pleasure score,[7],2.0 and 1.99
same,CSFQ Total Score,[7],37.8
same,CSFQ Arousal/Excitement score,[8],7.91
same,CSFQ Desire/Frequency score,[8],4.78
same,CSFQ Desire/Interest score,[8],6.76
same,CSFQ Orgasm/Completion score,[8],8.33
same,CSFQ Pleasure score,[8],2.22
same,CSFQ Total Score,[8],38.7
same,CSFQ Arousal/Excitement score,[9],8.43
same,CSFQ Desire/Frequency score,[9],5.01
same,CSFQ Desire/Interest score,[9],7.26 (p = 0.08)
same,CSFQ Orgasm/Completion score,[9],8.69
same,CSFQ Pleasure score,[9],2.46
same,CSFQ Total Score,[9],40.4
same,sexual desire/interest (in words),"women, compared with placebo, Day 28 and/or Day 56",strong trend
same,sexual interest (in words),"women, p=0.08",improved sexual interest
